Results from patent US10683318B2, “Scalable synthesis of reduced toxicity derivative of amphotericin B” (priority 2014, dated 2020).
Converted amounts (≈) assume the structure as drawn. Like-named read-outs stand apart in the source and are kept apart here.

Tests used:
[1] = Isothermal titration calorimetry with POPC LUVs containing 10% ergosterol; assay type: binding; settings: ITC; for Ergosterol binding (net exotherm vs sterol-free LUVs): result in words
Experimental: (§1) In an optimized isothermal titration calorimetry (ITC)-based assay, an aqueous solution of AmB was titrated with a suspension of large unilamellar vesicles (LUVs) comprised of only 1-palmitoyl-2-oleoyl-sn-glycero-3-phosphocholine (POPC), and the net exotherm was recorded. The titration was repeated using POPC LUVs containing 10% ergosterol. […] The titration was repeated using C2′epiAmB. […] The ITC assay was also conducted with cholesterol in place of ergosterol.
(§2) Experiments were performed using a NanoITC isothermal titration calorimeter (TA Instruments, Wilmington, Del.). Solutions of the compounds to be tested were prepared by diluting a 60.0 mM stock solution of the compound in DMSO to 600 μM with K buffer (5.0 mM HEPES/KHEPES, pH=7.4). The final DMSO concentration in the solution was 1% v/v. Large unilamellar vesicles comprised of only 1-palmitoyl-2-oleoyl-sn-glycero-3-phosphocholine (POPC LUVs) were prepared and phosphorus and ergosterol content was quantified as described below. The LUV solutions were diluted with buffer and DMSO to give a final phospholipid concentration of 12.0 mM in a 1% DMSO/K buffer solution. Immediately prior to use, all solutions were incubated at 37° C. for 30 minutes and degassed under vacuum at 37° C. for 10 minutes. The reference cell of the instrument (volume=0.190 mL) was filled with a solution of 1% v/v DMSO/K buffer.
Palmitoyl oleoyl phosphatidylcholine (POPC) was obtained as a 20 mg/mL solution in CHCl3 from Avanti Polar Lipids (Alabaster, Ala.) and was stored at −20° C. under an atmosphere of dry argon and used within 1 month. A 4 mg/mL solution of ergosterol in CHCl3 was prepared monthly and stored at 4° C. under an atmosphere of dry argon. Prior to preparing a lipid film, the solutions were warmed to ambient temperature to prevent condensation from contaminating the solutions. A 13×100 mm test tube was charged with 800 μL POPC and 230 μL of the ergosterol solution. For cholesterol-containing liposomes, a 13×100 mm test tube was charged with 800 μL POPC and 224 μL of the […] solution. […]

[2] = Isothermal titration calorimetry with POPC LUVs containing 10% cholesterol; assay type: binding; settings: ITC
Experimental: as §1
as §2, with “buffer. […]” for “buffer.”

[3] = Isothermal titration calorimetry with sterol-free POPC LUVs; assay type: binding; settings: ITC, no sterol (POPC LUVs), 600 μM compound, 25° C.
Experimental: as §1
as §2, with “buffer. […]” for “buffer.”

S. cerevisiae = assay: Broth microdilution MIC assay, S. cerevisiae; assay type: cell-based; settings: Saccharomyces cerevisiae, 30° C., 24 hours, no visible growth
Experimental: Liquid cultures were incubated at 30° C. on a rotary shaker and solid cultures were maintained at 30° C. in an incubator.
(§3) The protocol for the broth microdilution assay was adapted from the Clinical and Laboratory Standards Institute document M27-A2. […] 50 mL of YPD media was inoculated and incubated overnight at either 30° C. (S. cerevisiae) or 37° C. (C. albicans) in a shaker incubator. The cell suspension was then diluted with YPD to an OD600 of 0.10 (˜5×10^5 cfu/mL) as measured by a Shimadzu (Kyoto, Japan) PharmaSpec UV-1700 UV/Vis spectrophotometer. The solution was diluted 10-fold with YPD, and 195 μL aliquots of the dilute cell suspension were added to sterile Falcon (Franklin Lakes, N.J.) Microtest 96-well plates in triplicate. Compounds may be prepared as 400 μM stock solutions in DMSO and serially diluted to the following concentrations with DMSO: 1600, 1200, 800, 400, 320, 240, 200, 160, 120, 80, 40, 20, 10 and 5 μM. 5 μL aliquots of each solution were added to the 96-well plate in triplicate, with each column representing a different concentration of the test compound. […] This 40-fold dilution gave the following final concentrations: 50, 40, 30, 20, 10, 8, 6, 4, 1, 0.5, 0.25 and 0.125 μM. The plates were covered and incubated at 30° C. (S. cerevisiae) or 37° C. (C. albicans) for 24 hours prior to analysis. […]

C. albicans [4] = assay: Broth microdilution MIC assay, C. albicans; assay type: cell-based; settings: Candida albicans, 37° C., 24 hours, no visible growth
Experimental: C. albicans was cultured in a similar manner to S. cerevisiae except both liquid and solid cultures were incubated at 37° C.
as §3

[5] = test system: primary human renal proximal tubule epithelial cells; assay: WST-8 cell proliferation assay on primary RPTECs; assay type: cell-based; settings: concentration causing 90% loss of cell viability of primary human RPTECs, 24 hours
Experimental: Primary human renal proximal tubule epithelial cells (RPTECs) were purchased from ATCC (Manassas, Va.) and immediately cultured upon receipt. Complete growth media was prepared using renal epithelial cell basal medium (ATCC, PCS-400-030), renal epithelial cell growth kit (ATCC, PCS-400-040), and penicillin-streptomycin (10 units/mL and 10 μg/mL). Complete media was stored at 4° C. in the dark and used within 28 days. Primary RPTECs were grown in CO2 incubator at 37° C. with an atmosphere of 95% air/5% CO2.
WST-8 cell proliferation assay kit (10010199) was purchased from Cayman Chemical Company (Ann Arbor, Mich.) and stored at −20° C. and used within 6 months of receipt. WST-8 reagent and electron mediator solution were thawed and mixed to prepare the WST-8 reagent solution. The solution was stored at −20° C. and used within one week.
A suspension of primary RPTECs in complete growth media was brought to a concentration of 1×10^5 cells/mL. A 96-well plate was seeded with 99 μL of the cell suspension and incubated at 37° C. with an atmosphere of 95% air/5% CO2 for 3 hours. Positive and negative controls were prepared by seeding with 100 μL of the cell suspension or 100 μL of the complete media. […] Following incubation, the 96-well plate was mixed in a shaking incubator at 200 rpm for 1 minute and absorbances were read at 450 nm using a Biotek H1 Synergy Hybrid Reader (Winooski, Vt.). […]

C. albicans [6] = assay: Mouse model of disseminated candidiasis; assay type: in vivo; settings: neutropenic mice, single i.p. 16 mg/kg 2 hours post infection, kidneys at 24 hours post infection
Experimental: The antifungal efficacy of C2′epiAmB was tested in a mouse model of disseminated candidiasis. In this experiment neutropenic mice were infected with C. albicans via their tail veins, and then 2 hours post infection the mice were treated with a single intraperitoneal injection of 16 mg/kg AmB or C2′epiAmB. Then at 24 hours post infection the mice were sacrificed, and the fungal burden present in their kidneys was quantified.

healthy mice = assay: Acute toxicity, single intravenous administration to healthy mice; assay type: in vivo; settings: single i.v.
Experimental: In a separate experiment, acute toxicity was determined by single intravenous administration of AmB or C2′epiAmB to healthy mice, followed by monitoring for lethality.

human red blood cells [7] = settings: 2 h, pH 7.4
Experimental: (§4) Whole human blood (sodium heparin) was purchased from Bioreclamation LLC (Westbury, N.Y.) and stored at 4° C. and used within two days of receipt. To a 2.0 mL Eppendorf tube, 1 mL of whole human blood was added and centrifuged at 10,000 g for 2 minutes. The supernatant was removed and the erythrocyte pellet was washed with 1 mL of sterile saline and centrifuged at 10,000 g for 2 minutes. The saline wash was repeated for a total of three washes. The erythrocyte pellet was suspended in 1 mL of RBC buffer (10 mM NaH2PO4, 150 mM NaCl, 1 mM MgCl2, pH 7.4) to form the erythrocyte stock suspension.
(§5) Compounds were prepared as 1.03 min (AmB) or 12.8 min (C2′epiAmB) stock solutions in DMSO and serially diluted to the following concentrations with DMSO: 7689, 5126, 2563, 2050, 1538, 1025, 769, 513, 384, 256, 205, 154, 103, 77, 51, 26 μM. […] Positive and negative controls were prepared by adding 1 μL of DMSO to MilliQ water or RBC buffer, respectively to 0.2 mL PCR tube. To each PCR tube, 0.63 μL of the erythrocyte stock suspension was added and mixed by inversion. The samples were incubated at 37° C. for 2 hours. The samples were mixed by inversion and centrifuged at 10,000 g for 2 minutes. […] Absorbances were read at 540 nm using a Biotek H1 Synergy Hybrid Reader (Winooski, Vt.). […]
(§6) Percent hemolysis was determined according to the following equation: […]

human red blood cells [8] = assay: Minimum hemolysis concentration (MHC) assay; settings: concentration causing 90% hemolysis of human red blood cells, 37° C., 2 hours
Experimental: as §4, §5, §6

SMILES | Total exotherm ([1]; POPC LUVs with 10% ergosterol, 600 μM compound, 25° C.) | Ergosterol binding (net exotherm vs sterol-free LUVs) [1] | Total exotherm ([2]; POPC LUVs with 10% cholesterol, 600 μM compound, 25° C.) | Cholesterol binding ([2]; result in words) | Total exotherm [3] | MIC (S. cerevisiae) | MIC (C. albicans [4]) | minimum toxic concentration (MTC) [5] | Reduction of fungal burden relative to AmB (C. albicans [6]) | Reduction of fungal burden in kidneys compared with AmB (C. albicans [6]; result in words) | Lethality (healthy mice; up to 16 mg/kg) | minimum hemolytic concentration (MHC) (human red blood cells [7]) | Lethality (healthy mice; 4 mg/kg) | minimum hemolytic concentration (MHC) (human red blood cells [8])
C[C@@H]1[C@H](O)[C@@H](C)/C=C/C=C/C=C/C=C/C=C/C=C/C=C/[C@H](O[C@@H]2O[C@H](C)[C@@H](O)[C@H](N)[C@H]2O)C[C@@H]2O[C@](O)(C[C@@H](O)C[C@@H](O)[C@H](O)CC[C@@H](O)C[C@@H](O)CC(=O)O[C@H]1C)C[C@H](O)[C@H]2C(=O)O [C2′epiAmB] | -15.24 ± 1.66 µcal | binds to ergosterol | -6.43 ± 2.80 µcal | not found to bind to cholesterol | -6.70 ± 0.11 µcal | 2 µM (≈ 1.85 µg/mL) | 2 µM (≈ 1.85 µg/mL) | no evidence of toxicity up to the limits of solubility | 0.5 log units | more effective than AmB | no deaths observed | > 500 µM |  | 
C[C@@H]1[C@H](O)[C@@H](C)/C=C/C=C/C=C/C=C/C=C/C=C/C=C/[C@H](O[C@@H]2O[C@H](C)[C@@H](O)[C@H](N)[C@@H]2O)C[C@@H]2O[C@](O)(C[C@@H](O)C[C@@H](O)[C@H](O)CC[C@@H](O)C[C@@H](O)CC(=O)O[C@H]1C)C[C@H](O)[C@H]2C(=O)O [AmB, amphotericin B] |  | significant increase in net exotherm |  |  |  |  |  | 2.4 µM |  |  |  |  | died within seconds | 8.5 µM
